From patent US20050049206A1, “Compositions of flavonoids and flavonoid-containing extracts and the treatment of diseases” (priority 2003, published 2005)
Entries after “also recorded” stand apart in the source; their conditions may differ. Where two headings read alike, the source gives them in different places.

Key:
Acute toxicity (LD50) = settings: in vivo
[1] = system: pulmonary fibrosis in bleomycin-induced rats; experiment: Assays of bronchoalveolar lavage fluid in bleomycin-induced pulmonary fibrosis rats; type: in vivo, Sprague-Dawley rats; settings: BL-instilled rats, day 28, n=10
[2] = system: pulmonary fibrosis in bleomycin-induced rats; experiment: Histopathological / morphologic examination of lungs in bleomycin-induced pulmonary fibrosis rats; type: in vivo, Sprague-Dawley rats; settings: for Alveolitis Score 0 (number of rats) / Alveolitis Score I (number of rats) / Alveolitis Score II (number of rats) / Alveolitis Score III (number of rats) / Pulmonary Fibrosis Score 0 (number of rats) / Pulmonary Fibrosis Score I (number of rats) / Pulmonary Fibrosis Score II (number of rats) / Pulmonary Fibrosis Score III (number of rats): BL-instilled rats, day 28, n=10; for pulmonary anti-fibrotic activity: animal experiments (rats)
[3] = system: CCl4-induced liver cirrhosis in rats; experiment: Hepatic cirrhosis in CCl4-induced rats; type: in vivo, Sprague-Dawley rats; settings: for ALT decrease / AST decrease: serum, 450 mg/kg by gavage for 3 weeks after 8 weeks CCl4, P<0.001 (FIG. 10)
Text: Animals and method of baicalin dosing: Fibrosis was induced by chronic CCl4 administration to rats. Sprague-Dawley rats weighing 200-240 g received three doses a week i.p. of a mixture 1:6 of CCl4-mineral oil for the first week; then the second week the ratio was 1:5, the third week 1:4, and the 4th-8th weeks the ratio was 1:3 [Armendariz Biochim Biophys Acta 1997;1353:241-252, Armendariz Hepatology 1991;14:895-900.]. CCl4 intoxication was stopped and cirrhotic animals were then fed by gavage either with the baicalin (n=10) at the dosage of 450 mg/kg or saline (n=10) as a control for 3 more weeks.
Statistical analysis: Results relative to the number of experiments indicated, are expressed as mean ±SD. Statistical analyses were perfomed using Student's t-test.
Preparation of liver homogenates: Rats were killed at indicated times and liver homogenates were prepared from 150 mg of tissue as described [Gao Hum Gene Ther 1999;10:911-922.] and kept at −70° C. At the same time, serum samples were obtained and kept at −20° C. until used. Total protein levels in serum were determined using Bradford assay of protein quantification [Bradford Anal Biochem 1976;72:248-254.].
Biochemical assays: Blood was drawn from control and experimental cirrhotic animals at the moment of sacrifice and serum transaminases alanine aminotransferase (ALT), aspartate aminotransferase (AST) and alkaline phosphatase (ALP) were determined in an automated Sincron-7 machine.
Hydroxyproline content biochemical determinations: Liver samples were obtained at the moment of sacrifice and 150 mg were subjected to acid hydrolysis to determine the amount of hydroxyproline according to Rojkind and coworkers [Rojkind Anal Biochem 1974; 57:1-7].

[4] = baicalein by gavage once a day (350 or 450 mg/kg/day)
[5] = baicalin 450 mg/kg/day by gavage

## O=c1cc(-c2ccccc2)oc2cc(O)c(O)c(O)c12 [Baicalein, 5,6,7-Trihydroxy-2-phenyl-4H-chromen-4-one]
Acute toxicity (LD50)
  LD50: 11000 mg/kg
  acute toxicity: about 11 g/kg body weight
Acute toxicity (LD50); read-out: LD50
  LD50: 14000 mg/kg
[1]; [4]
  LDH: 1389.61 ± 526.34 U/L
  Mononuclear cells: 501.0 ± 310.2 ×10^4/ml
  Protein: 1.95 ± 0.35 g/L
[2]; baicalein by gavage once a day
  Alveolitis Score 0 (number of rats): 0
  Alveolitis Score I (number of rats): 8
  Alveolitis Score II (number of rats): 2
  Alveolitis Score III (number of rats): 0
  Pulmonary Fibrosis Score 0 (number of rats): 0
  Pulmonary Fibrosis Score I (number of rats): 7
  Pulmonary Fibrosis Score II (number of rats): 3
  Pulmonary Fibrosis Score III (number of rats): 0
[2]
  pulmonary anti-fibrotic activity: dramatic and novel pulmonary anti-fibrotic activity
[2]; baicalein by gavage, BL-rat model
  extracellular fibers and mononuclear cell alveolitis of lungs compared with the BL group: considerably less extracellular fibers and mononuclear cell alveolitis
[2]; oral baicalein, BL-induced rats
  fibrotic score (lung): dramatic effect

## O=C(O)[C@H]1O[C@@H](Oc2cc3oc(-c4ccccc4)cc(=O)c3c(O)c2O)[C@H](O)[C@@H](O)[C@@H]1O [Baicalin, (2S,3S,4S,5R,6S)-6-(5,6-dihydroxy-4-oxo-2-phenyl-4H-chromen-7-yloxy)-tetrahydro-3,4,5-trihydroxy-2H-pyran-2-carboxylic acid]
Acute toxicity (LD50)
  acute toxicity: ~14 g/kg body weight
Acute toxicity (LD50); read-out: LD50
  LD50: 11000 mg/kg
[1]; [5]
  LDH: 1331.61 ± 516.68 U/L
  Mononuclear cells: 465.0 ± 320.2 ×10^4/ml
  Protein: 1.85 ± 0.52 g/L
[2]; [5]
  Alveolitis Score 0 (number of rats): 0
  Alveolitis Score I (number of rats): 7
  Alveolitis Score II (number of rats): 3
  Alveolitis Score III (number of rats): 0
  Pulmonary Fibrosis Score 0 (number of rats): 0
  Pulmonary Fibrosis Score I (number of rats): 6
  Pulmonary Fibrosis Score II (number of rats): 4
  Pulmonary Fibrosis Score III (number of rats): 0
[2]
  pulmonary anti-fibrotic activity: dramatic and novel pulmonary anti-fibrotic activity
[2]; baicalin-treated BL-induced rats, day 28, HE staining
  lung lesions (morphology) compared with the BL group: of a more mild nature than that of the BL group; also recorded: considerably less extracellular fibers and mononuclear cell alveolitis; also recorded: of a more mild nature than those of the BL group
[2]; oral baicalin, BL-induced rats
  fibrotic index (lung): dramatic effect
[3]; 450 mg/kg baicalin, n=10, P<0.001 (FIG. 8)
  macroscopic view of cirrhotic livers, treated vs non-treated: remarkable differences in the entire granular texture of the liver
[3]; baicalin 450 mg/kg by gavage for 3 weeks after 8 weeks CCl4, P<0.05 (FIG. 9)
  hydroxyproline level of liver (relative collagen content per g of liver) vs non-treated: significantly lower
[3]; baicalin 450 mg/kg daily by gavage for 3 weeks after 8 weeks CCl4, n=10
  liver fibrosis reduction as compared with saline controls: 40%
[3]; oral baicalin 450 mg/kg, CCl4 rats (FIG. 8)
  fibrotic index (liver): dramatic effect
[3]
  ALT decrease: over 2 fold
  AST decrease: over 3 fold

## Cc1ccc(=O)n(-c2ccccc2)c1 [Pirfenidone, reference compound]
[3]
  ALT decrease: over 2 fold
  AST decrease: over 3 fold
